# Experimental data published in patent publication US20260297081A1, “COMPOUNDS AND METHODS OF TREATING CANCERS” (Cullgen Inc., priority 2023, published 2026).
# Tested on: MCF7 cells
# Assay: Anti-proliferation (viability) of MCF7 cells (Table 7, FIG. 2B)
# Type: cell-based
# Conditions: Homo sapiens, MCF7, MCF7 cells, 3-6 days, 10-point serial dilution; read-out: GI IC50 in MCF-7
row,IC50 [nM],Structure (SMILES)
1,< 50,"CC(=O)c1c(C)c2cnc(Nc3ccc(N4CC5(CN(CC(=O)N6CCC(Nc7nc(NC(C)C)ccc7C(=O)Nc7ccc(N(C)C)nn7)CC6)C5)C4)cn3)nc2n(C2CCCC2)c1=O [CPD-418, 2-((1-(2-(6-(6-((6-acetyl-8-cyclopentyl-5-methyl-7-oxo-7,8-dihydropyrido[2,3-d]pyrimidin-2-yl)amino)pyridin-3-yl)-2,6-diazaspiro[3.3]heptan-2-yl)acetyl)piperidin-4-yl)amino)-N-(6-(dimethylamino)pyridazin-3-yl)-6-(isopropylamino)nicotinamide]"
2,< 50,"CC(=O)c1c(C)c2cnc(Nc3ccc(N4CCC5(CC4)CC5C(=O)N4CCC(Nc5nc(NC(C)C)ccc5C(=O)Nc5cc(C)on5)CC4)cn3)nc2n(C2CCCC2)c1=O (stereo not drawn) [CPD-419, 2-((1-(6-(6-((6-acetyl-8-cyclopentyl-5-methyl-7-oxo-7,8-dihydropyrido[2,3-d]pyrimidin-2-yl)amino)pyridin-3-yl)-6-azaspiro[2.5]octane-1-carbonyl)piperidin-4-yl)amino)-6-(isopropylamino)-N-(5-methylisoxazol-3-yl)nicotinamide]"
3,> 100,"CC(=O)c1c(C)c2cnc(Nc3ccc(CN4CCN(CC(=O)N5CCC(Nc6nc(NC(C)C)ccc6C(=O)Nc6cn(C)c(C7CC7)n6)CC5)CC4)cn3)nc2n(C2CCCC2)c1=O [CPD-420, 2-((1-(2-(4-((6-((6-acetyl-8-cyclopentyl-5-methyl-7-oxo-7,8-dihydropyrido[2,3-d]pyrimidin-2-yl)amino)pyridin-3-yl)methyl)piperazin-1-yl)acetyl)piperidin-4-yl)amino)-N-(2-cyclopropyl-1-methyl-1H-imidazol-4-yl)-6-(isopropylamino)nicotinamide]"
4,> 100,"CC(=O)c1c(C)c2cnc(Nc3ccc(CN4CCN(CC(=O)N5CCC(Nc6nc(NC(C)C)ccc6C(=O)Nc6cc(C)n(C)n6)CC5)CC4)cn3)nc2n(C2CCCC2)c1=O [CPD-421, 2-((1-(2-(4-((6-((6-acetyl-8-cyclopentyl-5-methyl-7-oxo-7,8-dihydropyrido[2,3-d]pyrimidin-2-yl)amino)pyridin-3-yl)methyl)piperazin-1-yl)acetyl)piperidin-4-yl)amino)-N-(1,5-dimethyl-1H-pyrazol-3-yl)-6-(isopropylamino)nicotinamide]"
5,50 to 100,"CC(=O)c1c(C)c2cnc(Nc3ccc(N4CC5(CN(CC(=O)N6CC7(CC(Nc8nc(NC(C)C)ccc8C(=O)Nc8ccc(N(C)C)nn8)C7)C6)C5)C4)cn3)nc2n(C2CCCC2)c1=O [CPD-423, 2-((2-(2-(6-(6-((6-acetyl-8-cyclopentyl-5-methyl-7-oxo-7,8-dihydropyrido[2,3-d]pyrimidin-2-yl)amino)pyridin-3-yl)-2,6-diazaspiro[3.3]heptan-2-yl)acetyl)-2-azaspiro[3.3]heptan-6-yl)amino)-N-(6-(dimethylamino)pyridazin-3-yl)-6-(isopropylamino)nicotinamide]"
6,> 100,"CC(=O)c1c(C)c2cnc(Nc3ccc(N4CC5(CN(CC(=O)N6CCC(Nc7nc(NC(C)C)ccc7C(=O)Nc7ccc(N(C)C)nn7)C6)C5)C4)cn3)nc2n(C2CCCC2)c1=O (stereo not drawn) [CPD-424, 2-((1-(2-(6-(6-((6-acetyl-8-cyclopentyl-5-methyl-7-oxo-7,8-dihydropyrido[2,3-d]pyrimidin-2-yl)amino)pyridin-3-yl)-2,6-diazaspiro[3.3]heptan-2-yl)acetyl)pyrrolidin-3-yl)amino)-N-(6-(dimethylamino)pyridazin-3-yl)-6-(isopropylamino)nicotinamide]"
7,< 50,"CC(=O)c1c(C)c2cnc(Nc3ccc(N4CCC(N(C)CC(=O)N5CCC(Nc6nc(NC(C)C)ccc6C(=O)Nc6ccc(N(C)C)nn6)C5)CC4)cn3)nc2n(C2CCCC2)c1=O (stereo not drawn) [CPD-426, 2-((1-(N-(1-(6-((6-acetyl-8-cyclopentyl-5-methyl-7-oxo-7,8-dihydropyrido[2,3-d]pyrimidin-2-yl)amino)pyridin-3-yl)piperidin-4-yl)-N-methylglycyl)pyrrolidin-3-yl)amino)-N-(6-(dimethylamino)pyridazin-3-yl)-6-(isopropylamino)nicotinamide]"
8,< 50,"CC(=O)c1c(C)c2cnc(Nc3ccc(N4CCC(N(C)CC(=O)N5CC(Nc6nc(NC(C)C)ccc6C(=O)Nc6ccc(N(C)C)nn6)C5)CC4)cn3)nc2n(C2CCCC2)c1=O [CPD-427, 2-((1-(N-(1-(6-((6-acetyl-8-cyclopentyl-5-methyl-7-oxo-7,8-dihydropyrido[2,3-d]pyrimidin-2-yl)amino)pyridin-3-yl)piperidin-4-yl)-N-methylglycyl)azetidin-3-yl)amino)-N-(6-(dimethylamino)pyridazin-3-yl)-6-(isopropylamino)nicotinamide]"
9,> 100,"CNc1ccc(C(=O)Nc2ccc(N(C)C)nn2)c(NC2CC(C(=O)NC3CCC4(CCN(c5ccc(Nc6ncc7c(C)c(C(C)=O)c(=O)n(C8CCCC8)c7n6)nc5)CC4)C3)C2)n1 (stereo not drawn) [CPD-428, 2-((3-((8-(6-((6-acetyl-8-cyclopentyl-5-methyl-7-oxo-7,8-dihydropyrido[2,3-d]pyrimidin-2-yl)amino)pyridin-3-yl)-8-azaspiro[4.5]decan-2-yl)carbamoyl)cyclobutyl)amino)-N-(6-(dimethylamino)pyridazin-3-yl)-6-(methylamino)nicotinamide]"
10,> 100,"CNc1ccc(C(=O)Nc2ccc(N(C)C)nn2)c(NC2CCC(N(C)C(=O)CN3CCN(c4ccc(Nc5ncc6c(C)c(C(C)=O)c(=O)n(C7CCCC7)c6n5)nc4)CC3)C2)n1 (stereo not drawn) [CPD-430, 2-((3-(2-(4-(6-((6-acetyl-8-cyclopentyl-5-methyl-7-oxo-7,8-dihydropyrido[2,3-d]pyrimidin-2-yl)amino)pyridin-3-yl)piperazin-1-yl)-N-methylacetamido)cyclopentyl)amino)-N-(6-(dimethylamino)pyridazin-3-yl)-6-(methylamino)nicotinamide]"
11,50 to 100,"CC(=O)c1c(C)c2cnc(Nc3ccc(N4CCN(C(C)CC(=O)N5CCC(Nc6nc(NC(C)C)ccc6C(=O)Nc6cn(C)c(C7CC7)n6)CC5)CC4)cn3)nc2n(C2CCCC2)c1=O (stereo not drawn) [CPD-431, 2-((1-(3-(4-(6-((6-acetyl-8-cyclopentyl-5-methyl-7-oxo-7,8-dihydropyrido[2,3-d]pyrimidin-2-yl)amino)pyridin-3-yl)piperazin-1-yl)butanoyl)piperidin-4-yl)amino)-N-(2-cyclopropyl-1-methyl-1H-imidazol-4-yl)-6-(isopropylamino)nicotinamide]"
12,< 50,"[2H]C([2H])([2H])Nc1ccc(C(=O)Nc2ccc(N(C)C)nn2)c(NC2CC3(C2)CN(C(=O)CCN2CCN(c4ccc(Nc5ncc6c(C)c(C(C)=O)c(=O)n(C7CCCC7)c6n5)nc4)CC2)C3)n1 [CPD-432, 2-((2-(3-(4-(6-((6-acetyl-8-cyclopentyl-5-methyl-7-oxo-7,8-dihydropyrido[2,3-d]pyrimidin-2-yl)amino)pyridin-3-yl)piperazin-1-yl)propanoyl)-2-azaspiro[3.3]heptan-6-yl)amino)-N-(6-(dimethylamino)pyridazin-3-yl)-6-((methyl-d3)amino)nicotinamide]"
